The test has as its target T1, vitamin D receptor (VDR) (Homo sapiens, UniProt P11473).
T1 sequence (P11473 118-427 limits assumed): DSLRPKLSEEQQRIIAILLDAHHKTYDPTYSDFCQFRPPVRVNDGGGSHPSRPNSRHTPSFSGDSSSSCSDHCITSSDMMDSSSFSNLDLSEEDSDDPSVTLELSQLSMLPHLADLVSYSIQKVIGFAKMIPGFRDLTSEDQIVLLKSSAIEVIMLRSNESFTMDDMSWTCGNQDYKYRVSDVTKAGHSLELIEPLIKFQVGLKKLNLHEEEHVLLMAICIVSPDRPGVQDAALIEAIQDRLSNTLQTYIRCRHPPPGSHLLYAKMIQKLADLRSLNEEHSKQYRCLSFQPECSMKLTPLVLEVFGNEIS
The test is classed as binding.

Regarding `C=C1CC[C@H](O)C/C1=C/C=C1\CCC[C@]2(C)[C@@H]([C@H](C)CC(=O)O)CC[C@@H]12` [compound 13, calcioic acid], the midpoint of inhibition, the IC50, lay at 71.2 µM. That is a double-digit micromolar value.

The values are drawn from article PMC6980330 (Steroids, 2019).
